In brackets after ≈: the same amount, converted by molar mass. Where two headings read alike, the source gives them in different places.
Experiments:
[1] = test system: Staphylococcus aureus ATCC 6538; test: MIC, two-fold dilution microtiter, S. aureus ATCC 6538; type: cell-based
S. aureus TOUR L 165 [2] = test: MIC, two-fold dilution microtiter, S. aureus TOUR L 165; type: cell-based, Staphylococcus aureus
[3] = test system: Streptococcus pyogenes C203; test: MIC, two-fold dilution microtiter, S. pyogenes C203; type: cell-based; conditions: Todd-Hewitt broth, 18-24 h, 37° C
Protocol: (§1) The minimum inhibitory concentration (MIC) of representative compounds of the invention was determined using two-fold dilution method in microtiter system. The media used were: Todd-Hewitt broth (Difco) for steptococci; Iso-Sensitest broth (Oxoid) for staphylococci and gram-negative bacteria. The final inoculum was about 10^4 cfμ/ml. […] For M. tuberculosis H37 RV the inoculum consisted of 0.5-1% of a 7-9 day culture in Dubos medium. The tests were carried out in Kirschner medium supplemented with 10% horse serum. Observations were made after 7-days incubation at 37° C.

S. faecalis ATCC 7080 = test: MIC, two-fold dilution microtiter, S. faecalis ATCC 7080; type: cell-based; conditions: 37° C
S. pneumoniae UC 41 = test: MIC, two-fold dilution microtiter, S. pneumoniae UC 41; type: cell-based; conditions: 18-24 h, 37° C
[4] = test system: Proteus vulgaris XI9H ATCC 881; test: MIC, two-fold dilution microtiter, P. vulgaris; type: cell-based; conditions: P. vulgaris XI9H ATCC 881, Iso-Sensitest broth, 18-24 h, 37° C
[5] = test system: Escherichia coli SKF 12140; test: MIC, two-fold dilution microtiter, E. coli SKF 12140; type: cell-based; conditions: 18-24 h, 37° C
[6] = test system: Klebsiella pneumoniae ISM; test: MIC, two-fold dilution microtiter, K. pneumoniae ISM; type: cell-based
[7] = test system: Pseudomonas aeruginosa ATCC 10145; test: MIC, two-fold dilution microtiter, P. aeruginosa ATCC 10145; type: cell-based; conditions: P. aeruginosa ATCC 10145, Iso-Sensitest broth, 18-24 h, 37° C
[8] = test system: Mycobacterium tuberculosis H37RV ATCC 9360; test: MIC, M. tuberculosis H37RV, Kirschner medium; type: cell-based; conditions: 10% horse serum, 7 days, 37° C
Protocol: as §1

S. aureus TOUR L 1282 = test: MIC, two-fold dilution microtiter, rifampicin resistant S. aureus TOUR L 1282; type: cell-based; conditions: Staphylococcus aureus, TOURL1282, rifampicin resistant strain
S. aureus tour L 165 [9] = test: experimental septicemia in mice (S. aureus); type: in vivo; conditions: Staphylococcus aureus, once daily for three days, survival on 10th day
Protocol: The antimicrobial activity of the compounds of the invention is also confirmed in "in vivo" tests. The animals (groups of five mice) were infected by intraperitoneal injection of 16-hour broth culture of S. aureus tour L 165. Inocula were adjusted so that untreated animals died of septicemia within 48 hours. Animals were treated once daily for three days starting immediately after infection. On the 10th day the value for the ED50 in mg/kg/day was calculated by the method of […]-KARBER (Finney, D. J., Statistical method in biological assay, page 524. C. Griffin Ltd., London, 1952), on the basis of the percentage of surviving animals at each dose.

[10] = S. aureus TOUR L 165, supplemented with 30% bovine serum
[11] = Staphylococcus aureus, ATCC6538, S. aureus ATCC 6538, Iso-Sensitest broth, 18-24 h, 37° C, read-out: MIC
[12] = Staphylococcus aureus, TOURL165, S. aureus TOUR L 165, Iso-Sensitest broth, 18-24 h, 37° C, read-out: MIC
[13] = Staphylococcus aureus, TOURL165, S. aureus TOUR L 165, supplemented with 30% bovine serum, read-out: MIC
[14] = Streptococcus pyogenes, read-out: MIC
[15] = Enterococcus faecalis, ATCC7080, 18-24 h, read-out: MIC
[16] = Streptococcus pneumoniae, UC41, Todd-Hewitt broth, read-out: MIC
[17] = Proteus vulgaris, ATCC881, read-out: MIC
[18] = Escherichia coli, SKF12140, Iso-Sensitest broth, read-out: MIC
[19] = Klebsiella pneumoniae, K. pneumoniae ISM, Iso-Sensitest broth, 18-24 h, 37° C, read-out: MIC
[20] = Pseudomonas aeruginosa, ATCC10145, read-out: MIC
[21] = Mycobacterium tuberculosis, 168 h, read-out: MIC

Molecule	MIC [1, 11] [µg/mL]	MIC (S. aureus TOUR L 165 [2]; [12]) [µg/mL]	MIC (S. aureus TOUR L 165 [2]; [13]) [µg/mL]	MIC (S. aureus TOUR L 1282) [µg/mL]	MIC [3, 14] [µg/mL]	MIC (S. faecalis ATCC 7080; [15]) [µg/mL]	MIC (S. pneumoniae UC 41; [16]) [µg/mL]	MIC [4, 17] [µg/mL]	MIC [5, 18] [µg/mL]	MIC [6, 19] [µg/mL]	MIC [7, 20] [µg/mL]	MIC [8, 21] [µg/mL]	ED50 (S. aureus tour L 165 [9]; TOURL165, 240 h, sc) [mg/kg]	ED50 (S. aureus tour L 165 [9]; TOURL165, po, 240 h, os) [mg/kg]	further results
2'(4"-phenylmethoxycarbonyl-1"-piperazinyl) rifamycin P [Example 1f]															MIC ([1]; S. aureus ATCC 6538, Iso-Sensitest broth, 18-24 h, 37° C): 0.064 µg/mL; MIC (S. aureus TOUR L 165 [2]; S. aureus TOUR L 165, Iso-Sensitest broth, 18-24 h, 37° C): 0.064 µg/mL; MIC (S. aureus TOUR L 165 [2]; [10]): 0.064 µg/mL; MIC [3]: 0.125 µg/mL; MIC (S. faecalis ATCC 7080; 18-24 h): 2 µg/mL; MIC (S. pneumoniae UC 41; Todd-Hewitt broth): 0.064 µg/mL; MIC [4]: 64 µg/mL; MIC ([5]; Iso-Sensitest broth): > 128 µg/mL; MIC ([6]; K. pneumoniae ISM, Iso-Sensitest broth, 18-24 h, 37° C): > 128 µg/mL; MIC [7]: 32 µg/mL; MIC [8]: 0.5 µg/mL
COC1C=COC2(C)Oc3c(C)c(O)c4c(O)c(c5sc(N6CCCC6)nc5c4c3C2=O)NC(=O)C(C)=CC=CC(C)C(O)C(C)C(O)C(C)C(OC(C)=O)C1C (centres unmarked) [Example 1a, 2'-(1"-PyrrolidinyL) rifamycin P]	0.016 (≈ 0.0198 µM)	0.004 (≈ 0.00495 µM)	0.016 (≈ 0.0198 µM)	> 128	0.008 (≈ 0.0099 µM)	2 (≈ 2.48 µM)	0.032 (≈ 0.0396 µM)	16 (≈ 19.8 µM)	16 (≈ 19.8 µM)	32 (≈ 39.6 µM)	8 (≈ 9.9 µM)	2 (≈ 2.48 µM)			
COC1C=COC2(C)Oc3c(C)c(O)c4c(O)c(c5sc(N6CCOCC6)nc5c4c3C2=O)NC(=O)C(C)=CC=CC(C)C(O)C(C)C(O)C(C)C(OC(C)=O)C1C (centres unmarked) [Example 1b, 2'-(4"-morpholinyl) rifamycin P]	0.001 (≈ 0.00121 µM)	0.002 (≈ 0.00243 µM)	0.008 (≈ 0.00971 µM)	64 (≈ 77.7 µM)	0.032 (≈ 0.0388 µM)	1 (≈ 1.21 µM)	0.016 (≈ 0.0194 µM)	8 (≈ 9.71 µM)	16 (≈ 19.4 µM)	32 (≈ 38.8 µM)	16 (≈ 19.4 µM)	2 (≈ 2.43 µM)	0.21	0.21	
COC1C=COC2(C)Oc3c(C)c(O)c4c(O)c(c5sc(N6CCN(c7ccccc7)CC6)nc5c4c3C2=O)NC(=O)C(C)=CC=CC(C)C(O)C(C)C(O)C(C)C(OC(C)=O)C1C (centres unmarked) [Example 1c, 2'(4"-phenyl-1"-piperazinyl) rifamycin P]	0.004 (≈ 0.00445 µM)	0.008 (≈ 0.0089 µM)	0.016 (≈ 0.0178 µM)	> 128	0.032 (≈ 0.0356 µM)	1 (≈ 1.11 µM)	0.004 (≈ 0.00445 µM)	16 (≈ 17.8 µM)	4 (≈ 4.45 µM)		8 (≈ 8.9 µM)	1 (≈ 1.11 µM)	0.63	2.5	MIC ([6]; Klebsiella pneumoniae): > 128 µg/mL
COC1C=COC2(C)Oc3c(C)c(O)c4c(O)c(c5sc(N6CCN(Cc7ccccc7)CC6)nc5c4c3C2=O)NC(=O)C(C)=CC=CC(C)C(O)C(C)C(O)C(C)C(OC(C)=O)C1C (centres unmarked) [Example 1d, 2'(4"-phenylmethyl-1"-piperazinyl) rifamycin P]	0.004 (≈ 0.00438 µM)	0.008 (≈ 0.00876 µM)	0.016 (≈ 0.0175 µM)	> 128	0.064 (≈ 0.0701 µM)	1 (≈ 1.1 µM)	0.064 (≈ 0.0701 µM)	32 (≈ 35 µM)	32 (≈ 35 µM)	64 (≈ 70.1 µM)	16 (≈ 17.5 µM)	0.125 (≈ 0.137 µM)			
CCOC(=O)N1CCN(c2nc3c(s2)c2c(O)c4c(O)c(C)c5c(c43)C(=O)C(C)(OC=CC(OC)C(C)C(OC(C)=O)C(C)C(O)C(C)C(O)C(C)C=CC=C(C)C(=O)N2)O5)CC1 (centres unmarked) [Example 1e, 2'(4"-ethoxycarbonyl-1"-piperazinyl) rifamycin P]	0.032 (≈ 0.0358 µM)	0.064 (≈ 0.0715 µM)	0.064 (≈ 0.0715 µM)	128 (≈ 143 µM)	0.064 (≈ 0.0715 µM)	4 (≈ 4.47 µM)	0.064 (≈ 0.0715 µM)	16 (≈ 17.9 µM)	16 (≈ 17.9 µM)	32 (≈ 35.8 µM)	32 (≈ 35.8 µM)	2 (≈ 2.23 µM)			
COC1C=COC2(C)Oc3c(C)c(O)c4c(O)c(c5sc(N6CCCCC6)nc5c4c3C2=O)NC(=O)C(C)=CC=CC(C)C(O)C(C)C(O)C(C)C(OC(C)=O)C1C (centres unmarked) [Example 2, 2'-(1"-Piperidinyl) rifamycin P]	0.003 (≈ 0.00365 µM)	0.006 (≈ 0.0073 µM)	0.2 (≈ 0.243 µM)	> 100	0.05 (≈ 0.0608 µM)	1.6 (≈ 1.95 µM)	0.05 (≈ 0.0608 µM)	6.25 (≈ 7.6 µM)	12.5 (≈ 15.2 µM)	25 (≈ 30.4 µM)	6.25 (≈ 7.6 µM)	0.2 (≈ 0.243 µM)	0.16	0.63	
COC1C=COC2(C)Oc3c(C)c(O)c4c(O)c(c5sc(N6CCNCC6)nc5c4c3C2=O)NC(=O)C(C)=CC=CC(C)C(O)C(C)C(O)C(C)C(OC(C)=O)C1C (centres unmarked) [Example 4, 2'-(1"-Piperazinyl) rifamycin P]				> 128	0.125 (≈ 0.152 µM)	2 (≈ 2.43 µM)	0.064 (≈ 0.0778 µM)	8 (≈ 9.72 µM)	8 (≈ 9.72 µM)	16 (≈ 19.4 µM)	16 (≈ 19.4 µM)				MIC ([1]; Staphylococcus aureus, ATCC6538): 0.125 µg/mL (≈ 0.152 µM); MIC (S. aureus TOUR L 165 [2]; [10]): 0.125 µg/mL (≈ 0.152 µM); MIC (S. aureus TOUR L 165 [2]; Staphylococcus aureus, TOURL165): 0.125 µg/mL (≈ 0.152 µM)
CCN(CC)c1nc2c(s1)c1c(O)c3c(O)c(C)c4c(c32)C(=O)C(C)(OC=CC(OC)C(C)C(OC(C)=O)C(C)C(O)C(C)C(O)C(C)C=CC=C(C)C(=O)N1)O4 (centres unmarked) [Example 5, 2'-(N,N-diethylamino) rifamycin P]	0.032 (≈ 0.0395 µM)	0.064 (≈ 0.079 µM)	0.5 (≈ 0.617 µM)	> 128	0.064 (≈ 0.079 µM)	1 (≈ 1.23 µM)	0.032 (≈ 0.0395 µM)	32 (≈ 39.5 µM)	32 (≈ 39.5 µM)	64 (≈ 79 µM)		0.5 (≈ 0.617 µM)	0.21	0.82	

Reference: patent publication US4880789A, “2'-Substituted-4-deoxy-thiazolo(5,4-c)-rifamycin SV derivatives” (Gruppo Lepetit S.P.A., priority 1985, dated 1989)
